Experiment [1] relates to BALB/c spleen cells stimulated with C57BL/6 spleen cells. As to the kind of experiment: Inhibition of mouse allogenic mixed lymphocyte reaction. It counts as cell-based. The note with it: Mus musculus, Lymphocyte, 96 h; 4 days culture, MTT; read-out: Mouse allogenic MLR inhibitory activity IC50. As for the experimental part: Inhibition of Mouse Allogenic Mixed Lymphocyte Reaction
A mouse allogenic mixed lymphocyte reaction (hereinafter to be referred to as mouse allogenic MLR) was performed by mixed culture (equal ratio) of the spleen cell of BALB/c mice as the reaction cell and the spleen cell of C57BL/6 mice treated with mitomycin C as stimulated cell.
The reaction cells were prepared by the following method. Spleen was removed from 5-6 week old BALB/c mice and treated with RPMI1640 medium (containing kanamycin sulfate (60 μg/ml), penicillin G potassium (100 units/ml), N-2-hydroxyethylpiperazine-N′-2-ethanesulfonate (10 mM), 0.1% sodium hydrogencarbonate and L-glutamin (2 mM)) supplemented with 5% heat inactivated fetal bovine serum (FBS) to give a single cell suspension of the spleen cell. After hemolysis treatment, the suspension was adjusted to10^7 cells/ml with RPMI1640 medium containing 10^−4 M 2-mercaptoethanol and 10% FBS and used as a reaction cell suspension.
The reaction cell suspension (50 μl) prepared by the above method, stimulated cell suspension (50 μl) and the test compound (100 μl) prepared using RPMI1640 medium containing 10% FBS were added to a 96 well plate and incubated at 37° C. under 5% CO2 gas, 95% air for 4 days.
A pigment assay using 3-(4,5-dimethylthiazol-2-yl)-2,5-diphenyltetrazolium bromide (MTT) was applied for the determination of lymphocyte transformation reaction.
After the completion of culture, the supernatant (100 μl) in each well was removed, and 5 mg/ml MTT solution (20 μl) was added to each well, which was followed by incubation at 37° C. for 4 hours. Then, a 0.01 N hydrochloric acid solution (100 μl) containing 10% sodium dodecyl sulfate was added and the mixture was incubated at 37° C. overnight. The resulting purple crystals of formazan was dissolved and absorbance at 550 nm was measured using a microplate absorption meter, which was used as the index of lymphocyte transformation reaction of the mouse allogenic MLR. The inhibition of mouse allogenic MLR was evaluated by calculating the inhibition percentage by the following formula The results are shown in Table 7.

Experiment [2] relates to mouse femoral bone. As to the kind of experiment: Inhibition of bone resorption (in vitro), mouse femoral bone. As to conditions: 144 h, 6 days incubation of ICR mouse femoral bone. In short, it runs like this:
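Femurs from 3–6-week male ICR mice, marrow flushed, cultured 6 days in F12 with 10% FBS under 5% CO2 with test compound (DMSO-dissolved; DMSO-only controls). Calcium released into supernatant measured by o-cresolphthalein chelate method; inhibition calculated against untreated bone, n=4 per group.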

Experiment [3] concerns Bovine Aorta Thoracia Rho Kinase. As to the kind of experiment: Rho kinase inhibitory action (inhibition of bovine aorta thoracia Rho kinase). The format is biochemical. Here is the method:
Rho Kinase Inhibitory Action (Inhibition of Bovine Aorta Thoracia Rho Kinase)
The Rho kinase was prepared from bovine aorta of thorax by partial purification as in the following. The artery was minced and homogenized with a 9-fold amount of 50 mM Tris-hydroxymethylaminomethane (Tris) (pH=7.4), 1 mM dithiothreitol, 1 mM EGTA, 1 mM EDTA, 100 μM p-amidinophenylmethylsulfonyl fluoride, 5 μM E-64, 5 μM leupeptine and 5 μM pepstatin A. The homogenate was centrifuged (10,000×g, 30 minutes) to give supernatant. The supernatant was adsorbed onto a hydroxyapatite column. The column was washed with 0.2M phosphate buffer (pH=6.8). The standard product of Rho kinase was eluted with 0.4M phosphate buffer (pH=6.8). The Rho kinase was assayed as follows.
A reaction mixture (total amount 50 μl) containing 50 mM Tris, 1 mM EDTA, 5 mM MgCl2, 50 μg/ml histone, 10 μM GTPγS, 100 μg/ml Rho, 2 μM [^32P]ATP, the Rho kinase (3 μl) prepared in the above and the test compound was reacted at 30° C. for 5 minutes. The reaction was terminated by the addition of 25% trichloroacetic acid (TCA) solution (1 ml) and the mixture was stood at 4° C. for 30 minutes. Then, the mixture was filtered through a membrane filter (HAWP type, Millipore), and the radioactivity of the filter was counted on a liquid scintillation counter. The inhibitory action of the test compound was calculated from the following formula based on the comparison of the radioactivity with the sample without the test compound (control).

Experiment [4] concerns thoractic aorta ring contracted with phenylephrine. As to the kind of experiment: Vasodilating action on phenylephrine-contracted thoracic aorta rings. As to conditions: Oryctolagus cuniculus; rabbit aortic ring, phenylephrine 10^−6 M contraction; concentration for 50% relaxation; read-out: Vasorelaxing action. Here is the method:
Male rabbits (body weight 1.9-3.0 kg) were anesthetized with pentobarbital sodium and exsanguinated, whereafter thoractic aorta was removed. An about 2 mm width aortic ring samples were prepared and hung in a Magnus bath (40 ml) filled with Krebs-Henseleit solution (37° C., NaCl 117 mM; KCl 4.7 mM; CaCl2 2.5 mM; MgSO4 1.2 mM; NaHCO3 24.8 mM; KH2PO4 1.2 mM; glucose 11.0 mM) at a load of 2 g. The Magnus bath was constantly bubbled with a mixed gas (95% O2+5% CO2 gas). The tension of the preparation was measured with an isomeric transducer (TB-611T, Nippon Koden). The preparation was contracted with phenylephrine (10^−6 M) and, after the contraction was stabilized, the test compound was added accumulatively and relaxing action was observed.

Experiment [5] relates to normal human umberical vascular endothelial cells. In words: Inhibition of angiogenesis (lumen formation in vascular endothelial cells). As to conditions: 18 hours, compared with the control, number rises with inhibition of lumen formation. The format is cell-based.

We go through two compounds from patent publication US6906061B2, “Pharmaceutical agent containing Rho kinase inhibitor” (Mitsubishi Pharma Corporation, priority 1996, dated 2005).

For the compound `CC(N)[C@H]1CC[C@H](C(=O)Nc2ccncc2)CC1` (single isomer, unassigned; (+)) [Compound 80.2HCl.H2O, (+)-trans-4-(1-aminoethyl)-1-(4-pyridylcarbamoyl)cyclohexane], the figures for the IC50 in experiment [1] and in experiment [4] were 9600 nM and 700 nM, respectively. The compound further had an inhibition at 100 µM in experiment [2] of 40.9%. Besides, in experiment [3] (test compound 10 μM), the “Inhibition (%)” value is given as 100%. The “Number of lumen (10 μM)” value in experiment [5] was 174%.
As for `CC(N)[C@H]1CC[C@H](C(=O)Nc2ccnc3[nH]ccc23)CC1` (single isomer, unassigned; (+)) [Compound 109.2HCl, (+)-trans-N-(1H-pyrrolo[2,3-b]pyridin-4-yl)-4-(1-aminoethyl)cyclohexanecarboxamide], the results for the IC50 in experiment [1] and in experiment [4] were 1600 nM and 100 nM, respectively. Also, the inhibition at 100 µM in experiment [2] came out at 42.6%. Besides, the “Inhibition (%)” value in experiment [3] (test compound 1 μM) is listed as 81%; in experiment [3] (test compound 10 μM), 100%. The “Number of lumen (10 μM)” value in experiment [5] was 153%.
